Measured values as given in paper PMC10590419, “Structural and mechanistic insights into the inhibition of respiratory syncytial virus polymerase by a non-nucleoside inhibitor” (Communications Biology, 2023).
Where “and” joins values, the source holds several entries; their conditions need not be identical. Equal entries are not always repeated. Where two headings read alike, the source gives them in different places.

Biological target: recombinant RSV L+P (Human respiratory syncytial virus A, UniProt P28887)
Sequence (P28887 whole entry): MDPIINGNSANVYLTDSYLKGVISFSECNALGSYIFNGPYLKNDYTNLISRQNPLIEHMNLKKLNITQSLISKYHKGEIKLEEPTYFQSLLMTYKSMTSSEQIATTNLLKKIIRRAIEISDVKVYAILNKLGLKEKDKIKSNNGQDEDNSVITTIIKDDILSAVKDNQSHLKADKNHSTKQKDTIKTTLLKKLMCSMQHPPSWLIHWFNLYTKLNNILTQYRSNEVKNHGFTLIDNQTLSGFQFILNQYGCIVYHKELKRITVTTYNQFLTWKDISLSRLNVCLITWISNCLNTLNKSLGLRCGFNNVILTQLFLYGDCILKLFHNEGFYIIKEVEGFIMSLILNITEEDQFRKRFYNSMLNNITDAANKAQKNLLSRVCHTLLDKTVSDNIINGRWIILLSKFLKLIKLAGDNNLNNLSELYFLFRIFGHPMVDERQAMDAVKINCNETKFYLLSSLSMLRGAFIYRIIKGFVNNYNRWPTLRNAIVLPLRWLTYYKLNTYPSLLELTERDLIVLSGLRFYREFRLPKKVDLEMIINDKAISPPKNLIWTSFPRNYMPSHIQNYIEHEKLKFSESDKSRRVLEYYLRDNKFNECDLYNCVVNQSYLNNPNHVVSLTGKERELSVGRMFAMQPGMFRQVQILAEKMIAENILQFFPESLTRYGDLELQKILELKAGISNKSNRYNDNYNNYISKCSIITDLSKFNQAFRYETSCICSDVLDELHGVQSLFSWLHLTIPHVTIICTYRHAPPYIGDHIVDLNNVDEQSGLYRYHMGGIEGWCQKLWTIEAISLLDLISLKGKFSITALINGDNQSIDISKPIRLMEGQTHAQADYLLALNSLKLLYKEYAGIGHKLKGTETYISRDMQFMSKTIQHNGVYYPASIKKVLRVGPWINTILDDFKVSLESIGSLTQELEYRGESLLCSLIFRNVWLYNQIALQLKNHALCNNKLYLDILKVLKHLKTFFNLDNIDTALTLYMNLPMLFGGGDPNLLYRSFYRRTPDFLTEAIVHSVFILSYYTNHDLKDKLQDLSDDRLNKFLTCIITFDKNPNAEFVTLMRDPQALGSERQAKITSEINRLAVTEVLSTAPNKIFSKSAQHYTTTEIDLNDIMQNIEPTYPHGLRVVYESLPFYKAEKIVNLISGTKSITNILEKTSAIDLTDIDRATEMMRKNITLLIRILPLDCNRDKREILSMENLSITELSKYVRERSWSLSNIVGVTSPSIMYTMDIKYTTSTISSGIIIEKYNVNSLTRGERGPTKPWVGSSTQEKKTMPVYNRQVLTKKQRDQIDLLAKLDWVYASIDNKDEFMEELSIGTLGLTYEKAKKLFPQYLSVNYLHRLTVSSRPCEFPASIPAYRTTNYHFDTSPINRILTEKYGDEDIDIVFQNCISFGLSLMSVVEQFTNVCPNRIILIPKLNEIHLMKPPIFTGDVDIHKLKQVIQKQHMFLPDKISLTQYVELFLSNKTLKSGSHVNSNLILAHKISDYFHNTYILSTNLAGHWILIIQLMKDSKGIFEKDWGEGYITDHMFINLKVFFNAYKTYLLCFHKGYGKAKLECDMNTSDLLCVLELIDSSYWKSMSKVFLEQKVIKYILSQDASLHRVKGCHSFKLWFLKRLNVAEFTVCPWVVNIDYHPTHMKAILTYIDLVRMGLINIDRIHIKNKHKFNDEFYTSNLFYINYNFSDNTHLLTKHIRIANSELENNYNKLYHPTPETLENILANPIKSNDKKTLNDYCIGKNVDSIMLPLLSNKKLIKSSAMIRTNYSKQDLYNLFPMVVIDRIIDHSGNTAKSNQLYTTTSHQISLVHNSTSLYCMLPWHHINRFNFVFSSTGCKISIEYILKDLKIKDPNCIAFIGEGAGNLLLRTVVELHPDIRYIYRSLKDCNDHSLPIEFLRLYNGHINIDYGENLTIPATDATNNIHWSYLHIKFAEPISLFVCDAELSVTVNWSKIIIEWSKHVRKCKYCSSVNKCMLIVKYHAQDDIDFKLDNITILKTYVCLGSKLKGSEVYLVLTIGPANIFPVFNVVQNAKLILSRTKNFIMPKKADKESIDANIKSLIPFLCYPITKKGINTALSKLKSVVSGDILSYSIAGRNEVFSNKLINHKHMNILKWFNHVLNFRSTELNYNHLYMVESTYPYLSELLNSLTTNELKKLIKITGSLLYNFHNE
Sequence (P03421 whole entry, further chain): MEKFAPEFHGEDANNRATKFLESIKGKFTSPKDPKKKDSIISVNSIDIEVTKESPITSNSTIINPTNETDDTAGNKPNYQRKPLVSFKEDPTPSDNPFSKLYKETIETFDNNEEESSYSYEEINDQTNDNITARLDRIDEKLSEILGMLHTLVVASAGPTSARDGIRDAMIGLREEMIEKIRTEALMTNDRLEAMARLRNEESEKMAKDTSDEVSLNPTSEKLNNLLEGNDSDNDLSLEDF
Assay: Primed single nucleotide incorporation (SNI) gel assay, recombinant RSV L+P
Format: biochemical, Human RSV (strain A2)
Details: for pGCG formation, % inhbition / pGCGA formation, % inhbition / pGCGAA formation, % inhbition: le-11, +3 site
Method: RNA polymerase reaction samples consisted of 0.2 μM recombinant RSV L-P polymerase, 0.2 μM of an RNA template (Le11 or Tr14), and 400 μM of a short primer (sequences as indicated in the figures), mixed in a buffer containing 50 mM Tris pH 7.4, 2 mM dithiothreitol and 6 mM MgCl2. For the assay in Fig. 1d, reactions were started by adding 100 nM [α-^32P]GTP (3000 Ci/mmol) tracer and incubated at 30 °C for 10 min. […] Reactions were stopped by adding an equal volume of gel loading buffer containing 90% formamide, 50 mM EDTA, 0.05% Xylene Cyanol, and Bromophenol Blue. Samples were denatured at 95 °C for 5 min and run on a 22.5% polyacrylamide urea sequencing gel at 80 W. The gel was transferred onto a Whatman cellulose chromatography paper (Millipore Sigma) and dried on a gel dryer (Bio-Rad) for 1 h. The dried gel was exposed to a phosphor-screen, scanned on a Typhoon phosphorimager (GE Healthcare), and quantified using ImageQuant (GE Healthcare).

[1] = le-11, +1 site, 1 uM, replicates, 1 µM
[2] = tr-14, +1 site, 0.00390625 uM, replicates, 0.00390625 µM
[3] = tr-14, +1 site, 0.0078125 uM, replicates, 0.0078125 µM
[4] = tr-14, +1 site, 0.015625 uM, replicates, 0.015625 µM
[5] = tr-14, +1 site, 0.03125 uM, replicates, 0.03125 µM
[6] = tr-14, +1 site, 0.0625 uM, replicates, 0.0625 µM
[7] = tr-14, +1 site, 0.125 uM, replicates, 0.125 µM
[8] = tr-14, +1 site, 0.25 uM, replicates, 0.25 µM
[9] = tr-14, +1 site, 0.5 uM, replicates, 0.5 µM
[10] = tr-14, +1 site, 1 uM, replicates, 1 µM

COc1cc(C(=O)NC[C@](O)(c2cc(C(C)(C)O)c(F)c(-c3ccc(F)cc3)n2)C(F)(F)F)cc2cc(C)nnc12 [JNJ-8003]
pACGCG formation, % inhibition (le-11, +1 site, 0.5 uM, replicates, 0.5 µM): 94.5159% | inhibition at 0.5 µM (le-11, +1 site, 0.5 uM, replicates, read-out: pACG formation, % inhibition): 92.2% | inhibition at 0.5 µM (le-11, +1 site, 0.5 uM, replicates, read-out: pACGC formation, % inhibition): 16.5% | inhibition at 0.5 µM (le-11, +1 site, 0.5 uM, replicates, read-out: pACGCG formation, % inhibition): 92% | pACG formation, % inhibition [1]: 87.3809% | pACGCG formation, % inhibition [1]: 94.5412% | inhibition at 1 µM (le-11, +1 site, 1 uM, replicates, read-out: pACG formation, % inhibition): 92.2% | inhibition at 1 µM (le-11, +1 site, 1 uM, replicates, read-out: pACGC formation, % inhibition): 32.4% | inhibition at 1 µM (le-11, +1 site, 1 uM, replicates, read-out: pACGCG formation, % inhibition): 96.1% | pGCG formation, % inhbition (0.00390625 uM, replicates): 23.7355% and 15.5622% | pGCGA formation, % inhbition (0.00390625 uM, replicates): 16.5629% and 19.135% | pGCGAA formation, % inhbition (0.00390625 uM, replicates): 30.4505% and 24.1004% | pGCG formation, % inhbition (0.0078125 uM, replicates): 29.8775% and 21.4895% | pGCGA formation, % inhbition (0.0078125 uM, replicates): 17.4928% and 21.885% | pGCGAA formation, % inhbition (0.0078125 uM, replicates): 52.8128% and 27.8666% | pGCG formation, % inhbition (0.015625 uM, replicates): 50.6818% and 35.2042% | pGCGA formation, % inhbition (0.015625 uM, replicates): 18.8117% and 25.399% | pGCGAA formation, % inhbition (0.015625 uM, replicates): 51.4133% and 43.0842% | pGCG formation, % inhbition (0.03125 uM, replicates): 80.9404% and 57.9787% | pGCGA formation, % inhbition (0.03125 uM, replicates): 58.0899% and 36.3323% | pGCGAA formation, % inhbition (0.03125 uM, replicates): 92.0704% and 68.8528% | pGCG formation, % inhbition (0.0625 uM, replicates): 96.7556% and 96.0463% | pGCGA formation, % inhbition (0.0625 uM, replicates): 77.4419% and 86.4681% | pGCGAA formation, % inhbition (0.0625 uM, replicates): 98.2035% and 97.0821% | pGCG formation, % inhbition (0.125 uM, replicates): 97.7751% and 97.5727% | pGCGA formation, % inhbition (0.125 uM, replicates): 83.7601% and 82.1258% | pGCGAA formation, % inhbition (0.125 uM, replicates): 98.5207% and 97.9021% | pGCG formation, % inhbition (0.25 uM, replicates): 97.8446% and 96.8207% | pGCGA formation, % inhbition (0.25 uM, replicates): 81.8016% and 75.4758% | pGCGAA formation, % inhbition (0.25 uM, replicates): 98.388% and 97.2094% | pGCG formation, % inhbition (0.5 uM, replicates): 96.68% and 97.1903% | pGCGA formation, % inhbition (0.5 uM, replicates): 77.4429% and 81.101% | pGCGAA formation, % inhbition (0.5 uM, replicates): 98.095% and 97.9035% | pGCG formation, % inhbition (1 uM, replicates): 97.6913% and 97.6125% | pGCGA formation, % inhbition (1 uM, replicates): 86.6689% and 82.9875% | pGCGAA formation, % inhbition (1 uM, replicates): 98.8723% and 98.1005% | IC50 (le-11 and tr-14 templates, +1 and +3 site, read-out: IC50 values in the SNI assays): 17 to 32 nM | pACG formation, % inhibition [2]: 31.6% | pACGAG formation, % inhibition [2]: 12.8614% and 26.6827% | inhibition at 0.00390625 µM (tr-14, +1 site, 0.00390625 uM, replicates, read-out: pACG formation, % inhibition): 28.1% | pACG formation, % inhibition [3]: 29.3% | pACGAG formation, % inhibition [3]: 35.8415% | inhibition at 0.0078125 µM (tr-14, +1 site, 0.0078125 uM, replicates, read-out: pACG formation, % inhibition): 41.6% | inhibition at 0.0078125 µM (tr-14, +1 site, 0.0078125 uM, replicates, read-out: pACGAG formation, % inhibition): 21.3% | pACG formation, % inhibition [4]: 48.5% | pACGAG formation, % inhibition [4]: 57.7598% | inhibition at 0.015625 µM (tr-14, +1 site, 0.015625 uM, replicates, read-out: pACG formation, % inhibition): 62.7% | inhibition at 0.015625 µM (tr-14, +1 site, 0.015625 uM, replicates, read-out: pACGAG formation, % inhibition): 50.6% | pACG formation, % inhibition [5]: 79.8% | pACGAG formation, % inhibition [5]: 90.4225% | inhibition at 0.03125 µM (tr-14, +1 site, 0.03125 uM, replicates, read-out: pACG formation, % inhibition): 93.9% | inhibition at 0.03125 µM (tr-14, +1 site, 0.03125 uM, replicates, read-out: pACGA formation, % inhibition): 19.2% | inhibition at 0.03125 µM (tr-14, +1 site, 0.03125 uM, replicates, read-out: pACGAG formation, % inhibition): 92.2% | pACG formation, % inhibition [6]: 93.7% | pACGAG formation, % inhibition [6]: 96.2948% | inhibition at 0.0625 µM (tr-14, +1 site, 0.0625 uM, replicates, read-out: pACG formation, % inhibition): 95.6% | inhibition at 0.0625 µM (tr-14, +1 site, 0.0625 uM, replicates, read-out: pACGA formation, % inhibition): 23% | inhibition at 0.0625 µM (tr-14, +1 site, 0.0625 uM, replicates, read-out: pACGAG formation, % inhibition): 95.3% | pACG formation, % inhibition [7]: 94.1% | pACGAG formation, % inhibition [7]: 96.5623% | inhibition at 0.125 µM (tr-14, +1 site, 0.125 uM, replicates, read-out: pACG formation, % inhibition): 95.7% | inhibition at 0.125 µM (tr-14, +1 site, 0.125 uM, replicates, read-out: pACGA formation, % inhibition): 18.9% | inhibition at 0.125 µM (tr-14, +1 site, 0.125 uM, replicates, read-out: pACGAG formation, % inhibition): 95.9% | pACG formation, % inhibition [8]: 94.4% | pACGAG formation, % inhibition [8]: 96.9953% | inhibition at 0.25 µM (tr-14, +1 site, 0.25 uM, replicates, read-out: pACG formation, % inhibition): 95.3% | inhibition at 0.25 µM (tr-14, +1 site, 0.25 uM, replicates, read-out: pACGA formation, % inhibition): 21.3% | inhibition at 0.25 µM (tr-14, +1 site, 0.25 uM, replicates, read-out: pACGAG formation, % inhibition): 96.3% | pACG formation, % inhibition [9]: 93.2% | pACGAG formation, % inhibition [9]: 97.0094% | inhibition at 0.5 µM (tr-14, +1 site, 0.5 uM, replicates, read-out: pACG formation, % inhibition): 93.9% | inhibition at 0.5 µM (tr-14, +1 site, 0.5 uM, replicates, read-out: pACGAG formation, % inhibition): 95.7% | pACG formation, % inhibition [10]: 91.9% | pACGAG formation, % inhibition [10]: 97.3064% | inhibition at 1 µM (tr-14, +1 site, 1 uM, replicates, read-out: pACG formation, % inhibition): 92.2% | inhibition at 1 µM (tr-14, +1 site, 1 uM, replicates, read-out: pACGA formation, % inhibition): 39% | inhibition at 1 µM (tr-14, +1 site, 1 uM, replicates, read-out: pACGAG formation, % inhibition): 97%
